For assay [1], the target named is T1, p62 (Homo sapiens, UniProt Q13501).
T1 construct: expressed in transfected cells; host or cells: HEK293T, transient; whole lysate used
Nature of the assay: In vitro p62 oligomerization assay. The format is biochemical. To be noted: HEK293T lysate. The protocol: HEK293T cells were transiently transfected with a plasmid encoding p62-myc/his fusion proteins. Cells were resuspended in lysis buffer [50 mM HEPES (pH 7.4), 0.15 M KCl, 0.1% Nonidet P-40), 10% glycerol, containing a mixture of protease inhibitors and phosphatase inhibitor (Abcam)]. To lyse the cells, 10 cycles of freezing and thawing was done, followed by centrifugation at 13,000 × g for 20 min at 4 °C. Using a BCA assay, the protein concentration of the supernatant was measured. A total of 1 μg of protein was incubated with 1 mM of p62-ZZ ligands in the presence of 100 μM bestatin (Enzo) at room temperature for 2 h. After incubation, each sample was mixed with non-reducing 4X LDS sample buffer, heated at 95 °C for 10 min, and resolved using 4–20% gradient SDS-PAGE (Bio-Rad). To monitor the conversion of p62 monomers into oligomers or aggregates, IB assay was performed using anti-myc antibody.

Assay [2] concerns the target T2, mutant desminL385P (Homo sapiens, UniProt P17661, L385P).
T2 construct: expressed in transfected cells; host or cells: HeLa, transient
Nature of the assay: WB degradation of mutant desmin in HeLa cells. The format is cell-based. To be noted: exogenously expressed. The protocol: (§1) Adherent cells were washed with phosphate-buffered saline (PBS) and cell pellets were lysed in SDS-based sample buffer (277.8 mM Tris-HCI, pH 6.8, 4.4% LDS, 44.4% (v/v) glycerol) containing beta-mercaptoethanol. Alternatively, cell pellets or protein supernatants were lysed in 5X Laemmli sample buffer. Whole-cell lysates were separated using SDS-PAGE, and transferred onto polyvinyllidene difluoride membranes at 100 V for 2 h at 4 °C. The membrane was incubated with a blocking solution consisting 4% skim milk in PBS solution for 30 min at room temperature and incubated with primary antibodies overnight, followed by incubation with host-specific HRP-conjugated secondary antibodies (1:10000 dilution). For signal detection, the membrane was developed with a mixture of ECL solution (Thermo Fisher Scientific) using X-ray films. Densitometry of developed bands was measured and analyzed with ImageJ (NIH, Bethesda).
(§2) Supplementary Fig. 5. AUTOTACs selectively target pathological aggregation-prone proteins for autophagic degradation. (a) WB in HEK293T cells treated with PBA-1105 (1 μM) and MG132 (1 μM, 24 h) at the indicated time points. (b) ICC of HeLa cells treated with the indicated compounds (1 μM, 24 h). Scale bar, 10 μm. (c) WB in HEK293T cells treated with PBA-1105 (500 nM, 24 h) and MG132 (1 μM, 24 h) under siRNA-mediated knockdown of p62 or ATG7 (20 nM, 48 h). (d) ICC in HeLa cells transiently expressing WIPI2-GFP and treated with Anle138b-F105 (1 μM, 24 h). Scale bar, 10 μm. (e) ICC in HeLa cells treated with […]
(§3) nM, 24 h). (g, h) WB in HeLa cells transiently expressing wild type or mutant (L385P) desmin-flag with LacZ-myc and treated with PBA-1105, PBA-1105b or Anle138b-F105 at the […]

In assay [3] the target is T3, wild-type desmin (Homo sapiens, UniProt P17661).
T3 construct: expressed in transfected cells; host or cells: HeLa, transient
T3 sequence (P17661 whole entry): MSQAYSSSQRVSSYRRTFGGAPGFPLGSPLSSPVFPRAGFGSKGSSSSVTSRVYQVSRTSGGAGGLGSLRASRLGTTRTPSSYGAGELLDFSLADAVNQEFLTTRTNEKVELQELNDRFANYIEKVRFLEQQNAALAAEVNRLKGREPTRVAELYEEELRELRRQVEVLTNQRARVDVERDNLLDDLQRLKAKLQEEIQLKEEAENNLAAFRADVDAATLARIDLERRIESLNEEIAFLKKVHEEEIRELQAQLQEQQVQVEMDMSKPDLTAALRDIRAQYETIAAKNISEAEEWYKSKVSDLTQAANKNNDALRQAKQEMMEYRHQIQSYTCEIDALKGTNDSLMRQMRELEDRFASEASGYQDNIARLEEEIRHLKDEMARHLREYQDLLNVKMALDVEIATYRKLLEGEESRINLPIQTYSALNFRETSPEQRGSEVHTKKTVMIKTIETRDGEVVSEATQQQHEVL
Nature of the assay: WB degradation of wild-type desmin in HeLa cells. The format is cell-based. To be noted: exogenously expressed. The protocol: as §1, §2, §3

Assay [4] concerns the target tauP301L (Homo sapiens, UniProt P10636, P618L). Nature of the assay: WB degradation of tauP301L in SH-SY5Y-tauP301L cells. The format is cell-based. The essentials:
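Lysates in SDS/LDS or Laemmli sample buffer were separated by SDS-PAGE and blotted to PVDF. Target protein was detected with primary antibodies, HRP secondary and ECL on X-ray film, and degradation quantified by band densitometry.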

The test system of assay [5] is mutant huntingtin (Htt-NES-Q97, Htt-NLS-Q97). Nature of the assay: WB autophagy flux/degradation of mutant huntingtin in HeLa cells. The format is cell-based. To be noted: HttQ97-NLS-GFP, 24 h post-treatment; read-out: DC50 against the nuclear subpopulation of Htt. The protocol: as §1
Supplementary Fig. 7. AUTOTACs selectively degrade pathological mutant huntingtin.
(a) WB in HeLa-Htt-NLS-Q97-GFP cells treated with PBA-1106 or PBA-1105 (2.5 μM, 24 h) with or without HCQ (25 μM, 24 h). (b) Identical to a but with YOK-1106 instead of PBA-1105 in HeLa-Htt-NES-Q97-GFP cells. […] (k) Quantification of j (n=3 biologically independent experiments each counting 50 cells). […]

Usually DC50 stands for the concentration at which degradation of the target reaches its halfway point.

Sequence of tauP301L (P10636 1-441 isoform P10636-8 P301L): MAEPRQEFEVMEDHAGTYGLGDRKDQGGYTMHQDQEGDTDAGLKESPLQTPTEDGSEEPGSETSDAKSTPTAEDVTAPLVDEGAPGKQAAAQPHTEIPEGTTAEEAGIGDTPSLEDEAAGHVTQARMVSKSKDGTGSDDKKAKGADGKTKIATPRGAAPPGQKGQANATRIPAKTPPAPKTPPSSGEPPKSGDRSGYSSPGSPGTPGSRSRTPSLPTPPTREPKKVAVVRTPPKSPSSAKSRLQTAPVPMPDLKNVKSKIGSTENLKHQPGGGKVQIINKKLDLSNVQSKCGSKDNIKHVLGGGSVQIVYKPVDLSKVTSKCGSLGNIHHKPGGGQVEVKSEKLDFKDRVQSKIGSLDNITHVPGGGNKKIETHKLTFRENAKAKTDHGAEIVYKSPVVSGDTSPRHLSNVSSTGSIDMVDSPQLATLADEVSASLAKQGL
T2 sequence (P17661 whole entry L385P): as the sequence (P17661 whole entry) above, with L385P counted along it
T1 sequence (Q13501 whole entry): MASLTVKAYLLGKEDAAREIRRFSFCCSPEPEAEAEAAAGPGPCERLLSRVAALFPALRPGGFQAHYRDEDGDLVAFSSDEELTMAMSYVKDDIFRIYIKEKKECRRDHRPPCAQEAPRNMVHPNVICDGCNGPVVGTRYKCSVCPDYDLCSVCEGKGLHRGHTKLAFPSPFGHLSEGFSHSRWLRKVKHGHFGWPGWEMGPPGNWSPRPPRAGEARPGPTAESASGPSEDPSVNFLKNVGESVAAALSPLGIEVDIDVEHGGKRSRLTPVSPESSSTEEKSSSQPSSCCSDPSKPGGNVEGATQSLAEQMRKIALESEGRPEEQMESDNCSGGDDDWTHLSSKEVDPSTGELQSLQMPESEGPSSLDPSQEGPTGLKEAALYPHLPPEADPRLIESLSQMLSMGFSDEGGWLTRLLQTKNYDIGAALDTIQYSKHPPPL

As for `Fc1ccc(COc2cccc(CNCCOCCOCCNc3cccc(-c4cc(-c5ccc6c(c5)OCO6)n[nH]4)c3)c2)cc1` [Anle138b-F105], the p62 self-oligomerization entry in assay [1] is recorded as “facilitated p62 self-polymerization”. Besides, the “degradation of mutant desminL385P” value in assay [2] is “induced the degradation”. Moreover, the “degradation of wild-type desmin” value in assay [3] is given as “not wild-type desmin”. Moreover, the “persistence of mutant tau degradation post-washout” value in assay [4] (100 nM 24 h, then washout) is recorded as “at least 8 h”. Also, the 50% degradation concentration (DC50) in assay [4] (SH-SY5Y-tauP301L cells) and in assay [5] was ~3 nM throughout.

For the origin of these results see PMC8850458, “The AUTOTAC chemical biology platform for targeted protein degradation via the autophagy-lysosome system” (Nature Communications, 2022).
